The source of these data is patent US9901625B2, “Methods of regulating uptake and transcellular transport of leukocytes and therapeutics” (University of Maryland, College Park, priority 2011, dated 2018).

Experiment [1] deals with activated HUVEC monolayers. The experiment is described as follows: Transport of WBCs across activated HUVEC monolayers on a porous membrane (SDF1-α chemoattractant). The note with it: for WBC transmigration across HUVEC monolayer: 30 min, 37° C., WBCs counted in bottom chamber; for WBC capacity to transmigrate across the porous filter in the absence of an endothelial monolayer: no HUVEC monolayer. It is filed as cell-based, human. The procedure:
A confluent EC monolayer from human umbilical vein ECs was grown on a porous membrane through which peripheral lymphocytes isolated from healthy individuals (wild-type WBCs) can transmigrate, driven by the presence of the chemoattractant SDF1-α in the chamber underneath the ECs. Under control conditions, 77.7±2.3% wild-type WBCs underwent transmigration by 30 min, which was abrogated when K562 cells lacking the ICAM-1- and VCAM-1-binding integrins LFA-1 and VLA-4, respectively, were used (FIG. 1A). Transport of either peripheral blood lymphocytes (control) or K562 cells lacking ICAM-1- and VCAM-1-binding integrins of white blood cells (WBCs) across activated HUVEC monolayers assessed at 37° C. by counting WBCs in the bottom chamber underneath HUVEC, 30 min after adding WBCs to the upper chamber above HUVECs (black bars). Transmigration was alternatively performed prior (control) or after blocking integrins LFA-1 or VLA-4 on peripheral blood lymphocytes using monoclonal antibodies. The horizontal dashed line in FIG. 1A represents WBC transmigration at 4° C.
Data are normalized to control values, and represent mean and standard errors of the mean (n≧3 experiments). *, P≦0.001 by Student's t test.
Further, transport of activated peripheral blood lymphocytes (WBCs) across activated HUVEC monolayers was assessed at 37° C. by counting WBCs in the bottom chamber underneath HUVEC 30 min after adding WBCs to the upper chamber above HUVECs (FIG. 2A black bars). Absence of HUVEC monolayer was a control (FIG. 2A white bars). Transmigration was performed in the absence (control) or presence of filipin, methyl-β-cyclodextrin (Cdx) or amiloride. In accord with previous works (Tilghman R W, et al. (2002) FEBS Lett 525:83-87; Barreiro O, et al. (2005) Blood 105:2852-2861; Millan et al., 2006), WBC transmigration was inhibited by methyl-β-cyclodextrin (Cdx; 48.1±4.8% of control; FIG. 2A), an agent that depletes cholesterol from cells. […] Instead, amiloride, which affects Na^+/H^+ exchangers (Kleyman T R, et al. (1988) J Membr Biol 105:1-21) and inhibits CAM-mediated endocytosis (Muro S, et al. (2003) J Cell Sci 11 6:1599-1609), reduced WBC transmigration even to a greater extent than Cdx (38.6±3.7% of control; FIG. 2A).

Experiment [2] has as its system activated HUVECs. The experiment is described as follows: Paracellular vs transcellular transmigration of WBCs over HUVECs on coverslips (podosome scoring). To be noted: for WBC TEM (WBCs projecting podosomes into/under HUVECs): 30 min, 37° C.; for arrested WBCs located away from the EC borders / diapedesis of WBCs located away from the EC borders: EC center; for paracellular TEM (transmigrating WBCs at EC border) / transcellular TEM (transmigrating WBCs at EC center): normalized to control; for paracellular TEM (transmigrating WBCs at EC border): <3 μm from cell border; for transcellular TEM (transmigrating WBCs at EC center): ≧3 μm from cell border. It is filed as cell-based, human. Here is the method:
The role of lipid domains and CAM-mediated endocytosis in paracellular versus transcellular diapedesis of leukocytes was examined. To distinguish between paracellular and transcellular TEM, WBCs were labeled with green-fluorescent calcein and diapedesis was evaluated by fluorescence and scanning electron microscopy as WBCs projecting podosomes (versus round-shaped WBCs) into or under ECs growing over glass coverslips (FIG. 3; FIG. 4).
Data are normalized to control values (horizontal dashed lines) and represent mean and standard errors of the mean (n≧30 WBCs). *, P≦0.05; **, P≦0.01; ***, P≦0.001 by Student's t test.

Experiment [3] relates to HUVECs. The experiment in a line: Endocytosis of anti-ICAM beads by ECs in culture (HUVECs). It is filed as cell-based, human. The note with it: values normalized to controls.
Experiment [4] deals with ICAM-1. To be noted: cited from earlier work.
The test system of experiment [5] is activated HUVECs. The experiment is described as follows: Binding of activated WBCs to activated HUVECs (fluorescence microscopy). To be noted: 30 min, 37° C. It is filed as cell-based, human.
From the text: The horizontal dashed line represents binding of negative control K562 WBCs, which lack ICAM-I- and VCAM-1-binding integrins. Data are normalized to control values, and represent mean and standard errors of the mean (n≧3 experiments). *, P≦0.001 by Student's t test.
Experiment [6] relates to activated HUVECs. The experiment is described as follows: Recruitment of molecules at sites of endothelial ICAM-1 engagement by anti-ICAM beads. It is filed as cell-based, human. To be noted: 15 min.

In the case of `CCCCC[C@@H](O)[C@H]1C(=O)O[C@H](C)[C@@H](O)/C=C/C=C/C=C/C=C/C=C(\C)[C@@H](O)C[C@H](O)C[C@H](O)C[C@H](O)C[C@H](O)C[C@H](O)C[C@@H]1O` [filipin], the “WBC transmigration across HUVEC monolayer” value in experiment [1] is on record as 88.0±7.7 % of control. Moreover, the “WBC TEM (WBCs projecting podosomes into/under HUVECs)” value in experiment [2] is 108.7±8.6 % of control. For the same compound, in experiment [3], the “Internalization (%) of anti-ICAM beads” value is listed as 107.2 ± 1.5%. Further, the “Formation of endocytic vesicles upon ICAM-1 engagement by anti-ICAM particles” value in experiment [4] is on record as “not affected”.
For `N=C(N)NC(=O)c1nc(Cl)c(N)nc1N` [amiloride], in experiment [1], the “WBC transmigration across HUVEC monolayer” value was 38.6±3.7 % of control and the “WBC capacity to transmigrate across the porous filter in the absence of an endothelial monolayer” value is “Neither Cdx nor amiloride impaired”. Besides, in experiment [5], the “affected WBC binding to ECs” value was “Neither”. For the same compound, in experiment [2], the “WBC TEM (WBCs projecting podosomes into/under HUVECs)” value is listed as 63.8±7.3 % of control, the “arrested WBCs located away from the EC borders” value is on record as 209.1±68.1 % of control, the “diapedesis of WBCs located away from the EC borders” value is reported as 56.0±27.5 % of control and the “paracellular TEM (transmigrating WBCs at EC border)” value is reported as 139.6±34.1%. Further, the “transcellular TEM (transmigrating WBCs at EC center)” value in experiment [2] is listed as 65.5±29.7%. The “ICAM-1 enrichment in areas of bead engulfment” value in experiment [6] stood at 22.9 % decrease. Also, in experiment [3], the “Internalization (%) of anti-ICAM beads” value was determined as 13.8 ± 3.3 %.
With `CCN(c1nc(N)c(C(=O)N=C(N)N)nc1Cl)C(C)C` [EIPA, 5′-(N-ethyl-N-isopropyl)amiloride], the “ceramide enrichment in areas of bead engulfment” value in experiment [6] is listed as 35.6 % decrease.
For the compound methyl-β-cyclodextrin [Cdx], in experiment [1], the “WBC transmigration across HUVEC monolayer” value is listed as 48.1±4.8 % of control and the “WBC capacity to transmigrate across the porous filter in the absence of an endothelial monolayer” value was “Neither Cdx nor amiloride impaired”. The “affected WBC binding to ECs” value in experiment [5] was “Neither”. In experiment [2], the “WBC TEM (WBCs projecting podosomes into/under HUVECs)” value is reported as 80.5±6.8 % of control, the “arrested WBCs located away from the EC borders” value is on record as 170.5±36.2 % of control, the “diapedesis of WBCs located away from the EC borders” value is 71.5±14.6 % of control and the “paracellular TEM (transmigrating WBCs at EC border)” value came to 124.9±17.1%. The “transcellular TEM (transmigrating WBCs at EC center)” value in experiment [2] stood at 78.3±14.9%. Further, the “ICAM-1 enrichment in areas of bead engulfment” value in experiment [6] is recorded as 43 % decrease.
On to `CN(C)CCCN1c2ccccc2CCc2ccccc21` [imipramine], for which, in experiment [2], the “WBC TEM (WBCs projecting podosomes into/under HUVECs)” value is 46.6±7.6 % of control. For the same compound, in experiment [2] (FIG. 14C), the “level of transcellular TEM” value is on record as “decreased the level of transcellular TEM” and the “paracellular TEM” value is “paracellular TEM increased”. In addition, the “ceramide enrichment in areas of bead engulfment” value in experiment [6] is given as 23.6 % decrease. The “Internalization (%) of anti-ICAM beads” value in experiment [3] turned out to be 61.9 ± 6.7 %.
